Reference: EP1643252B1 (priority 2004, dated 2009)

Assays:
cellular prion protein = conditions: from individual with no prion disease
PrP^Sc = conditions: brain homogenate of prion disease infected animal and human; biotinylated peptide on streptavidin magnetic beads

Row | Sequence | capture of cellular prion protein (cellular prion protein) | ability to capture PrP^Sc from brain homogenate (PrP^Sc)
1 | AQKKDGKKRKRSRKESYSIYV [peptide-7] | do not capture cellular prion protein | capture PrP^Sc
2 | NWCKRGRKNCKTH [peptide-2] | do not capture cellular prion protein | capture PrP^Sc
3 | NYKKPKLG [peptide-3] | do not capture cellular prion protein | capture PrP^Sc
4 | WQPPRARI [peptide-1] | do not capture cellular prion protein | capture PrP^Sc
5 | YRGRYGYKGKYGYRG [peptide-6] | do not capture cellular prion protein | capture PrP^Sc
6 | YRGYRGYRGYRG [peptide-5] | do not capture cellular prion protein | capture PrP^Sc
